Here are results for 22 molecules from ChEMBL document CHEMBL4052659, “Synthesis, molecular docking, and biological activity of polyfluoroalkyl dihydroazolo[5,1-c][1,2,4]triazines as selective carboxylesterase inhibitors” (Bioorg Med Chem, 2017).

Data set [1] deals with Acetylcholinesterase (Homo sapiens) (UniProt P22303). Nature of the data set: Inhibition of human erythrocyte acetylcholinesterase at 20 uM using acetylthiocholine iodide as substrate preincubated for 10 mins followed by substrate addition by Ellman's method relative to control.
Data set [2] addresses Cholinesterase (Equus caballus) (UniProt P81908). Nature of the data set: Inhibition of equine serum butyrylcholinesterase at 20 uM using butyrylthiocholine iodide as substrate preincubated for 10 mins followed by substrate addition by Ellman's method relative to control.
For data set [3], the target named is T1, Liver carboxylesterase (Sus scrofa, UniProt Q29550).
T1 sequence (Q29550 whole entry): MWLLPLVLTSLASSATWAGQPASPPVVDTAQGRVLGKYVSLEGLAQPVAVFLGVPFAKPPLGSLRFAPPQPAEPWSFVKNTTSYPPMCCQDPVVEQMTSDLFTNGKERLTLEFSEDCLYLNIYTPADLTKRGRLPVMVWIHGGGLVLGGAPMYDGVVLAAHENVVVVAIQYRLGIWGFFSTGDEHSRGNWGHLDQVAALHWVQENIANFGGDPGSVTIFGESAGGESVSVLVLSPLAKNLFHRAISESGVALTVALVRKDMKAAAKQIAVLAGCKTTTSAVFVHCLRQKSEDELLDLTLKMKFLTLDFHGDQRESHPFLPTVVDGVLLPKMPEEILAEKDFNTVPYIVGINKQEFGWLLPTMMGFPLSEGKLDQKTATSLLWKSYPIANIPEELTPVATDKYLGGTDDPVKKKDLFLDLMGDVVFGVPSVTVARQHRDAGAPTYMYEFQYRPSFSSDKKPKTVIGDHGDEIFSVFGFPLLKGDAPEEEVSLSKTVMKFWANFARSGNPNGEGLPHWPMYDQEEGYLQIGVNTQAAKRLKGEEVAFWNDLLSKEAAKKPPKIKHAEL
Description: in vitro. The note with it: pig, porcine liver carboxylesterase, probe 4-nitrophenol acetate.
Description: Inhibition of porcine liver carboxylesterase at 20 uM using 4-nitrophenol acetate as substrate preincubated for 10 mins followed by substrate addition by spectrophotometric analysis relative to control

The target in data set [4] is T1, Liver carboxylesterase. Nature of the data set: Competitive inhibition of porcine liver carboxylesterase using varying levels of 4-nitrophenol acetate as substrate preincubated for 10 mins followed by substrate addition by Lineweaver-Burk plot analysis.
Data set [5] can be described thus: Acute toxicity in CD-1 mouse assessed as mouse survival up to 300 mg/kg, ip measured for 14 days. It is filed as organism-based. The note with it: in vivo.
For data set [6], the target named is T1, Liver carboxylesterase. Description: Non-competitive inhibition of porcine liver carboxylesterase using varying levels of 4-nitrophenol acetate as substrate preincubated for 10 mins followed by substrate addition by Lineweaver-Burk plot analysis. As to conditions: pig.
The target of data set [7] is T1, Liver carboxylesterase.
Description: Inhibition of porcine liver carboxylesterase using 4-nitrophenol acetate as substrate preincubated for 10 mins followed by substrate addition by spectrophotometric analysis
In data set [8] the target is T1, Liver carboxylesterase. Nature of the data set: Reversible mixed-type inhibition of porcine liver carboxylesterase at 5 to 20 uM using varying levels of 4-nitrophenol acetate as substrate preincubated for 10 mins followed by substrate addition by Lineweaver-Burk double-reciprocal plot analysis. The note with it: pig.
For data set [9], the target named is T1, Liver carboxylesterase. Nature of the data set: Reversible mixed-type inhibition of porcine liver carboxylesterase at 0.5 to 2 uM using varying levels of 4-nitrophenol acetate as substrate preincubated for 10 mins followed by substrate addition by Lineweaver-Burk double-reciprocal plot analysis. As to conditions: pig.
For data set [10], the target named is T1, Liver carboxylesterase. Nature of the data set: Reversible mixed-type inhibition of porcine liver carboxylesterase at 0.1 to 0.6 uM using varying levels of 4-nitrophenol acetate as substrate preincubated for 10 mins followed by substrate addition by Lineweaver-Burk double-reciprocal plot analysis. The note with it: pig.

Active and inactive are the calls of the source. The rule behind the calls is not given here.

Chain of Cholinesterase (Equus caballus) (P81908 whole entry): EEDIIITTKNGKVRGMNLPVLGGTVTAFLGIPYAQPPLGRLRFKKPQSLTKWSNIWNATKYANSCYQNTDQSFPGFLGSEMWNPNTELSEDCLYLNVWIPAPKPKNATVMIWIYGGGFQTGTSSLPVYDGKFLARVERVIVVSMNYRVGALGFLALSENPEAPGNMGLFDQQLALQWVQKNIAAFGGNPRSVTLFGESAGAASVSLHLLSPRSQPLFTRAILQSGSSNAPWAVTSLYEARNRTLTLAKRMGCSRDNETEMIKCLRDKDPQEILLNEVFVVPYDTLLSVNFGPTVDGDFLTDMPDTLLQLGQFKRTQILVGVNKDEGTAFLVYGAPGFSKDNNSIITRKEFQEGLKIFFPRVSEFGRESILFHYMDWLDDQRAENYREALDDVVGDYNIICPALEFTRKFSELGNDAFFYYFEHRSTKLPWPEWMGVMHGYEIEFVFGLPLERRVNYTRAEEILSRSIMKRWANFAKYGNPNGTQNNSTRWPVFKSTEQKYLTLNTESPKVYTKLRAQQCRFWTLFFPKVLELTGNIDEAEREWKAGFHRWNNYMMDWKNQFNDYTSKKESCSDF
Chain of Acetylcholinesterase (Homo sapiens) (P22303 whole entry): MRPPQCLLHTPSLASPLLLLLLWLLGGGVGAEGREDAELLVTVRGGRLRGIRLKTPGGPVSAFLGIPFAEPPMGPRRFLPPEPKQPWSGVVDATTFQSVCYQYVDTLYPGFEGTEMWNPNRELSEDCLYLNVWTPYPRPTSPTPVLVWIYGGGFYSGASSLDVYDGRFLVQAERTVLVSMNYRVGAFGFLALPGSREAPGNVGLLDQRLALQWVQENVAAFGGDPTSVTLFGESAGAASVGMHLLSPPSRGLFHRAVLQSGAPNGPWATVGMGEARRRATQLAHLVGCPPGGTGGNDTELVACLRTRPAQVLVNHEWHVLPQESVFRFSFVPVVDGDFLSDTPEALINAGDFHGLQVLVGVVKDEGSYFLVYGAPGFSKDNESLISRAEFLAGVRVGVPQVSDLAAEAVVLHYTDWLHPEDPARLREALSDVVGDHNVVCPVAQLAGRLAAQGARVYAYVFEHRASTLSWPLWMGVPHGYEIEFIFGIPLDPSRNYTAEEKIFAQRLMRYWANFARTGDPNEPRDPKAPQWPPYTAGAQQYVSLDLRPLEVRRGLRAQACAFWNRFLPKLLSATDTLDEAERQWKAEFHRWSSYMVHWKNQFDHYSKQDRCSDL

Consider `CCOC(=O)C1=NNc2c(C(=O)OCC)cnn2C1(O)C(F)(F)F` (stereo not drawn), for which the inhibition entry in [1] was “inactive”. In data set [2], the inhibition was found to be 8.5%. This molecule yielded an inhibition at 20 µM on Liver carboxylesterase [3] of 9.3%.
`CCOC(=O)C1=NNc2cc(-c3ccccc3)nn2C1(O)C(F)(F)C(F)(F)F` (stereo not drawn): the figures for the inhibition in data set [1] and in data set [2] were 13.6% and 22%, respectively. This molecule also gave a Ki on Liver carboxylesterase [4] of 1.61 µM. Further, the survival at 336 h in data set [5] turned out to be 100%. This molecule gave an alphaKi at Liver carboxylesterase [6] of 3.52 µM. The same molecule gave a concentration for half-maximal inhibition (IC50) on Liver carboxylesterase [7] of 3.91 µM.
Turning to `CCOC(=O)C1=NNc2c(C(=O)OCC)ncn2C1(O)C(F)(F)F` (stereo not drawn), the inhibition entry in data set [1] and in [2] was “inactive” each time. The IC50 against Liver carboxylesterase [7] worked out at 34.4 µM.
`COC(=O)C1=NNc2ncnn2C1(O)C(F)(F)C(F)(F)C(F)(F)C(F)(F)F` (stereo not drawn): the inhibition result in [1] and in data set [2] was “inactive” in each case. For the same molecule, at Liver carboxylesterase [8], the “inhibition (INH)” value was “Active”. This molecule also came in with an inhibitory constant (Ki) on Liver carboxylesterase [4] of 6.51 µM. On Liver carboxylesterase [6], this molecule had an alphaKi of 23.4 µM. For the same molecule, on Liver carboxylesterase [7], inhibition was half-maximal at 10.7 µM (IC50).
On to `COC(=O)C1=NNc2nnnn2C1(O)C(F)(F)C(F)(F)C(F)(F)F` (stereo not drawn), for which the inhibition entry in [1] and in [2] was “inactive” throughout. For the same molecule, the 50% inhibitory concentration (IC50) against Liver carboxylesterase [7] came out at 3.29 µM.
Regarding `COC(=O)C1=NNc2cc(-c3ccccc3)nn2C1(O)C(F)(F)C(F)(F)C(F)(F)C(F)(F)F` (stereo not drawn), the results for the inhibition in [1] and in [2] were 11.7% and 11.6%, respectively. The Ki at Liver carboxylesterase [4] came out at 0.7 µM. Besides, the alphaKi on Liver carboxylesterase [6] turned out to be 1.6 µM. For the same molecule, 0.96 µM corresponded to half-maximal inhibition at Liver carboxylesterase [7] (IC50).
On to `O=[N+]([O-])c1ccc(OP(=O)(O)Oc2ccc([N+](=O)[O-])cc2)cc1`, for which the inhibition result in data set [1] and in data set [2] was “inactive” throughout. 1.8 µM corresponded to half-maximal inhibition on Liver carboxylesterase [7] (IC50).
As to `COC(=O)C1=NNc2nnnn2C1(O)C(F)(F)F` (stereo not drawn), the inhibition entry in data set [1] was “inactive”. Further, in data set [2], the inhibition turned out to be 4.1%. For the same molecule, the IC50 against Liver carboxylesterase [7] is 58.6 µM.
Take `CCOC(=O)C1=NNc2ncnn2C1(O)C(F)(F)C(F)(F)C(F)(F)C(F)(F)F` (stereo not drawn): the inhibition entry in [1] is “inactive”. Further, the inhibition in data set [2] was found to be 3.7%. The same molecule registered a 50% inhibitory concentration (IC50) against Liver carboxylesterase [7] of 0.98 µM.
The corresponding values for `CCOC(=O)c1nnc(N)nc1C(F)(F)F` are “inactive”, “inactive” and 3.9 µM.
The corresponding values for `CCOC(=O)C1=NNc2nnnn2C1(O)C(F)(F)F` (stereo not drawn) are “inactive”, “inactive” and 13.6 µM.
On to `CCOC(=O)C1=NNc2cc(C)nn2C1(O)C(F)(F)F` (stereo not drawn), for which, in data set [1], the inhibition entry was “inactive”. Moreover, the inhibition in data set [2] stood at 7.3%. On Liver carboxylesterase [7], the half-inhibitory concentration (IC50) stood at 48.3 µM.
The corresponding values for `CCOC(=O)c1cnn2c1NN=C(C(=O)OC)C2(O)C(F)(F)C(F)(F)C(F)(F)F` (stereo not drawn) are “inactive”, “inactive” and 38.2 µM.
The like results for `CCOC(=O)C1=NNc2ncnn2C1(O)C(F)(F)F` (stereo not drawn) were, in that order, “inactive”, “inactive” and 3.6 µM.
On to `COC(=O)C1=NNc2nnnn2C1(O)C(F)(F)C(F)(F)C(F)(F)C(F)(F)F` (stereo not drawn), for which the inhibition result in data set [1] and in [2] was “inactive” throughout. In addition, the “inhibition (INH)” value on Liver carboxylesterase [9] is “Active”. The same molecule showed an inhibitory constant (Ki) on Liver carboxylesterase [4] of 0.57 µM. Besides, the survival at 336 h in data set [5] came out at 100%. On Liver carboxylesterase [6], this molecule yielded an alphaKi of 1.74 µM. The molecule also returned an IC50 on Liver carboxylesterase [7] of 1.31 µM.
For the molecule `CCOC(=O)C1=NNc2nnnn2C1(O)C(F)(F)C(F)(F)C(F)(F)C(F)(F)F` (stereo not drawn), the inhibition result in [1] and in [2] was “inactive” each time. Also, at Liver carboxylesterase [7], the IC50 is 0.83 µM.
`CCOC(=O)C1=NNc2cc(-c3ccccc3)nn2C1(O)C(F)(F)F` (stereo not drawn) gave an inhibition in [1] of 3.8%. Besides, the inhibition entry in data set [2] was “inactive”. It took 16.4 µM to reach half-maximal inhibition against Liver carboxylesterase [7] (IC50).
For the molecule `CCOC(=O)C1=NNc2cc(C)nn2C1(O)C(F)(F)C(F)(F)C(F)(F)C(F)(F)F` (stereo not drawn), the inhibition was 3% in data set [1] and 6% in [2]. Further, the survival at 336 h in data set [5] stood at 100%. This molecule yielded an IC50 against Liver carboxylesterase [7] of 1.44 µM.
For the molecule `O=C(C1=NNc2ncnn2C1(O)C(F)(F)C(F)(F)C(F)(F)F)c1ccccc1` (stereo not drawn), the inhibition result in [1] and in [2] was “inactive” each time. Further, 53.4 µM corresponded to half-maximal inhibition against Liver carboxylesterase [7] (IC50).
For `CCOC(=O)C1=NNc2cc(-c3ccccc3)nn2C1(O)C(F)(F)C(F)(F)C(F)(F)C(F)(F)F` (stereo not drawn), the inhibition entry in data set [1] is “inactive”. Also, the inhibition in data set [2] turned out to be 16.2%. At Liver carboxylesterase [4], the Ki was 0.23 µM. In data set [5], the survival at 336 h turned out to be 100%. Moreover, the alphaKi at Liver carboxylesterase [6] was 0.69 µM. For the same molecule, inhibition against Liver carboxylesterase [7] was half-maximal at 0.46 µM (IC50). In addition, the “inhibition (INH)” value at Liver carboxylesterase [10] is “Active”.
`COC(=O)C1=NNc2nnnn2C1(O)C(F)(F)C(F)F` (stereo not drawn): the inhibition entry in data set [1] and in data set [2] was “inactive” in each case. The molecule further showed a half-inhibitory concentration (IC50) against Liver carboxylesterase [7] of 12.3 µM.
With `O=C(C1=NNc2nnnn2C1(O)C(F)(F)F)c1ccccc1` (stereo not drawn), the inhibition entry in data set [1] and in data set [2] was “inactive” in each case. This molecule also showed an IC50 at Liver carboxylesterase [7] of 17.2 µM.
